# Tests used:
# AVA5 cell line = conditions: concentration giving 2-fold depression of neutral red dye uptake vs untreated cultures; daily treatment for three days, assessed at 72 hours; ± S.D.
# Description: Compounds were added to dividing cultures daily for three days. […] Intracellular HCV RNA levels and cytotoxicity were assessed 72 hours after treatment.
# Quadruplicate cultures for HCV RNA levels and cytoxicity (on 96-well plates) were used. A total of 12 untreated control cultures, and triplicate cultures treated with α-interferon (concentrations of: 10 IU/mL, 3.3 IU/mL, 1.1 IU/mL and 0.37 IU/mL) and 2′C-Me-C (concentrations of: 30 μM, 10 μM, 3.3 μM and 1.1 μM) served as assay controls.
# HCV RNA levels in the treated cultures are expressed as a percentage of the mean levels of RNA detected in untreated cultures. The absorbance of the internalized dye at […] (A510) was used for quantitative analysis.
# Compounds were dissolved in 100% tissue culture grade DMSO (Sigma, Inc.) at 10 mM. Aliquots of test compounds sufficient for one daily treatment were made in individual tubes and all material was stored at −20° C. For the test, the compounds were suspended into culture medium at room temperature, and immediately added to the cell cultures. Compounds were analyzed separately in two groups with separate assay controls. The concentrations of the test compounds were run at concentrations of 10 μM, 3.3 μM, 1.1 μM and 0.37 μM.
# [1] = test system: HCV RNA-replicating cell line, AVA5 (genotype 1b, subgenomic replicon); experiment: HCV replicon assay, intracellular HCV RNA levels by blot hybridization; type: cell-based, HCV genotype 1b; conditions: for EC50: concentration giving 2-fold depression of HCV RNA vs untreated cultures; for EC50 / EC90: normalized to β-actin RNA, daily treatment for three days, assessed at 72 hours, ± S.D.; for EC90: concentration giving 10-fold depression of HCV RNA vs untreated cultures; for Antiviral activity (in words): summary of the Table 1 results in the text
# Description: Antiviral activity of the test compounds was assessed (Okuse, et al., Antivir. Res. (2005) 65:23) in the stably HCV RNA-replicating cell line, AVA5 (genotype 1b, subgenomic replicon, Blight, et al., Sci. (2000) 290:1972). Compounds were added to dividing cultures daily for three days. […] Intracellular HCV RNA levels and cytotoxicity were assessed 72 hours after treatment.
# Intracellular HCV RNA levels were measured using a conventional blot hybridization method, in which HCV RNA levels are normalized to the levels of β-actin RNA in each individual culture (Okuse, et al., Antivir. Res. (2005) 65:23). Cytotoxicity was measured using an established neutral red dye uptake assay (Korba and Gerin, Antivir. Res. (1992) 19:55; Okuse, et al., Antivir. Res. (2005) 65:23). HCV RNA levels in the treated cultures are expressed as a percentage of the mean levels of RNA detected in untreated cultures. The absorbance of the internalized dye at 510 nM (A510) was used for quantitative analysis.
# Values presented (±standard deviations [S.D.]) were calculated by linear regression analysis using data combined from all treated cultures. S.D. was calculated using the standard error of regression generated from the linear regression analyses (QuattroPro™).
Structure (SMILES),CC50 (AVA5 cell line) [µM],EC50 [1] [µM],EC90 [1] [µM],Antiviral activity (in words) [1]
COC(=O)[C@H](C)NP(=O)(OC[C@H]1O[C@@H](n2cnc(C(N)=O)n2)[C@H](O)[C@@H]1O)Oc1ccccc1 (some centres unmarked) [Compound 12],> 100,> 100,> 100,inactive
"CCOC(=O)C(COC(C)=O)(COP(=O)(OC[C@H]1O[C@@H](n2cnc(C(N)=O)n2)[C@H](O)[C@@H]1O)OCC(COC(C)=O)(C(=O)OCC)C(=O)OCC)C(=O)OCC [Compound 14, Ribavirin 5′-bis[3-acetyloxy-2,2-bis(ethoxycarbonyl)propyl]phosphate]",9.7 ± 0.2,1.6 ± 0.2,4.4 ± 0.4,markedly more active compared to compound 12

# — patent US20090176732A1, “PROTECTED NUCLEOTIDE ANALOGS” (Alios BioPharma Inc., priority 2007, published 2009)
